Laboratory results as given in US11555032B2, “Isoxazole derivatives as FXR agonists and methods of use thereof” (Enanta Pharmaceuticals, Inc., priority 2019, dated 2023).
pEC50: −log10 of the molar value.

What follows are compounds tested against T1, human FXR (NR1H4) (Homo sapiens, UniProt Q96RI1) (assay: Human FXR (NRIH4) Assay, luciferase reporter). Details: CHO reporter cells expressing human NR1H4, luciferase, 22 hours incubation.
T1 construct: host or cells: CHO (Chinese hamster ovary) reporter cells
T1 sequence (Q96RI1 1-486): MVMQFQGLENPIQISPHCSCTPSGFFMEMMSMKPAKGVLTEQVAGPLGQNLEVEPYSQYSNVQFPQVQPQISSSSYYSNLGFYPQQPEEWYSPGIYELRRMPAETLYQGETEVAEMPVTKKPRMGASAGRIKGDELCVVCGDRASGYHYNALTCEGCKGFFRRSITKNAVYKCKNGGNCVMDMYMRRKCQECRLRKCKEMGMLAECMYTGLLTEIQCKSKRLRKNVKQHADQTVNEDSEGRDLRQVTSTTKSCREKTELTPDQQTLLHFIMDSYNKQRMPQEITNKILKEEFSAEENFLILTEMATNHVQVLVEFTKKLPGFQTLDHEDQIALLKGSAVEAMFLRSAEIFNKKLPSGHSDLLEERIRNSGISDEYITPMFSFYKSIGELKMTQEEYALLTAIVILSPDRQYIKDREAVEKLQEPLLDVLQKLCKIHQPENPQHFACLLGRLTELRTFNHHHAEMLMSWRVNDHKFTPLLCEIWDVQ
Type: cell-based
Text: Determination of a ligand mediated Gal4 promoter driven transactivation to quantify ligand binding mediated activation of FXR. FXR Reporter Assay kit purchased from Indigo Bioscience (Catalogue number: IB00601) to determine the potency and efficacy of compound developed by Enanta that can induce FXR activation. The principle application of this reporter assay system is to quantify functional activity of human FXR. The assay utilizes non-human mammalian cells, CHO (Chinese hamster ovary) cells engineered to express human NR1H4 protein (referred to as FXR). Reporter cells also incorporate the cDNA encoding beetle luciferase which catalyzes the substrates and yields photon emission. Luminescence intensity of the reaction is quantified using a plate-reading luminometer, Envision. Reporter Cells include the luciferase reporter gene functionally linked to an FXR responsive promoter. Thus, quantifying changes in luciferase expression in the treated reporter cells provides a sensitive surrogate measure of the changes in FXR activity. EC50 and efficacy (normalize to CDCA set as 100%) is determined by XLFit. The assay is according to the manufacturer's instructions. In brief, the assay was performed in white, 96 well plates using final volume of 100 ul containing cells with different doses of compounds. Retrieve Reporter Cells from −80° C. storage. Perform a rapid thaw of the frozen cells by transferring a 10 ml volume of 37° C. cell recovery medium into the tube of frozen cells. Recap the tube of Reporter Cells and immediately place it in a 37° C. water bath for 5-10 minutes. Retrieve the tube of Reporter Cell Suspension from the water bath. Sanitize the outside surface of the tube with a 70% alcohol swab, and then transfer it into the cell culture hood. Dispense 90 μl of cell suspension into each well of the 96-well Assay Plate. Transfer the plate into 37° C. incubator, allowing the cells adherent to the bottom of the well. Dilute compounds in Dilution Plate (DP), and administrate to cells at Assay Plate (AP). DMSO content of the samples was kept at 0.2%. Cells were incubated for additional 22 hours before luciferase activities were measured. Thirty minutes before intending to quantify FXR activity, remove Detection Substrate and Detection Buffer from the refrigerator and place them in a low-light area so that they may equilibrate to room temperature. Remove the plate's lid and discard all media contents by ejecting it into an appropriate waste container. Gently tap the inverted plate onto a clean absorbent paper towel to remove residual droplets. Cells will remain tightly adhered to well bottoms. Add 100 μl of luciferase detection reagent to each well of the assay plate. Allow the assay plate to rest at room temperature for at least 5 minutes following the addition of LDR. Set the instrument (Envision) to perform a single 5 second “plate shake” prior to reading the first assay well. Read time may be 0.5 second (500 mSec) per well. EC50 and Efficacy (normalize to CDCA set as 100%) is determined by XLFit.
The efficacy was normalized to CDCA set as 100%.

Row | pEC50 | Compound
1 | > 7.60 | O=C(NS(=O)(=O)C1CC1)c1cccc2nc(NC3C4CCC3CC(OCc3c(-c5ccccc5OC(F)(F)F)noc3C3CC3)C4)cnc12 (centres unmarked) [Example 34]
2 | > 7.60 | N#Cc1ccc2nc(NC3C4CCC3CC(OCc3c(-c5ccccc5OC(F)(F)F)noc3C3CC3)C4)cnc2c1 (centres unmarked) [Example 35]
3 | > 7.60 | O=C(O)c1cc(C2CC2)c2nc(NC3C4CCC3CC(OCc3c(-c5ccccc5OC(F)(F)F)noc3C3CC3)C4)sc2c1 (centres unmarked) [Example 36]
4 | > 7.60 | O=C(O)c1cc(OC(F)(F)F)c2nc(NC3C4CCC3CC(OCc3c(-c5ccccc5OC(F)(F)F)noc3C3CC3)C4)sc2c1 (centres unmarked) [Example 37]
5 | 6.30 to 7.60 | N#Cc1cc(C2CC2)c2nc(NC3C4CCC3CC(OCc3c(-c5ccccc5OC(F)(F)F)noc3C3CC3)C4)sc2c1 (centres unmarked) [Example 38]
6 | > 7.60 | O=C(O)c1cc(F)cc2nc(NC3C4CCC3CC(OCc3c(-c5ccccc5OC(F)(F)F)noc3C3CC3)C4)cnc12 (centres unmarked) [Example 39]
7 | > 7.60 | N#Cc1cc(F)cc2nc(NC3C4CCC3CC(OCc3c(-c5ccccc5OC(F)(F)F)noc3C3CC3)C4)cnc12 (centres unmarked) [Example 40]
8 | > 7.60 | O=C(O)c1ccc2nc(NC3C4CCC3CC(OCc3c(-c5ccccc5OC(F)(F)F)noc3C3CC3)C4)cnc2c1 (centres unmarked) [Example 41]
9 | 6.30 to 7.60 | O=C(O)c1cc(F)c2nc(S(=O)(=O)C3C4CCC3CC(OCc3c(-c5ccccc5OC(F)(F)F)noc3C3CC3)C4)sc2c1 (centres unmarked) [Example 45]
10 | > 7.60 | FC(F)(F)Oc1ccccc1-c1noc(C2CC2)c1COC1CC2CCC(C1)C2Nc1cnc2c(-c3nnn[nH]3)cccc2n1 (centres unmarked) [Example 46]
11 | 6.30 to 7.60 | N#Cc1cccc2ncc(NC3C4CCC3CC(OCc3c(-c5ccccc5OC(F)(F)F)noc3C3CC3)C4)nc12 (centres unmarked) [Example 47]
12 | > 7.60 | N#Cc1cccc2nc(NC3C4CCC3CC(OCc3c(-c5ccccc5OC(F)(F)F)noc3C3CC3)C4)cnc12 (centres unmarked) [Example 48]

Second part, the compound before the results:

Row | Compound | pEC50
13 | Fc1c(Br)cccc1CNC1C2CCC1CC(OCc1c(-c3ccccc3OC(F)(F)F)noc1C1CC1)C2 [Example 15, (1R,3r,5S,8s)-N-(3-bromo-2-fluorobenzyl)-3-((5-cyclopropyl-3-(2-(trifluoromethoxy)phenyl)isoxazol-4-yl)methoxy)bicyclo[3.2.1]octan-8-amine] | 6.30 to 7.60
14 | Fc1ccc(CCNC2C3CCC2CC(OCc2c(-c4ccccc4OC(F)(F)F)noc2C2CC2)C3)cc1 (centres unmarked) [Example 15-2] | < 6.30
15 | O=C(O)c1cc(F)c2nc(NC3C4CCC3CC(NCc3c(-c5ccccc5OC(F)(F)F)noc3C3CC3)C4)sc2c1 (centres unmarked) [Example 16] | 6.30 to 7.60
16 | O=C(O)c1ccc2c(c1)CN(C1C3CCC1CC(OCc1c(-c4c(Cl)cccc4Cl)noc1C1CC1)C3)C2 (centres unmarked) [Example 17] | 6.30 to 7.60
17 | CC(C)Oc1cc(C(=O)O)cc2sc(OC3C4CCC3CC(OCc3c(-c5ccccc5OC(F)(F)F)noc3C3CC3)C4)nc12 (centres unmarked) [Example 18] | 6.30 to 7.60
18 | FC(F)(F)Oc1ccccc1-c1noc(C2CC2)c1COC1CC2CCC(C1)C2Nc1cnc2cc(-c3nnn[nH]3)ccc2n1 (centres unmarked) [Example 25] | 6.30 to 7.60
19 | O=C(O)c1cc(F)cc2ncc(NC3C4CCC3CC(OCc3c(-c5ccccc5OC(F)(F)F)noc3C3CC3)C4)nc12 (centres unmarked) [Example 26] | < 6.30
20 | N#Cc1cc(C2CC2)cc2nc(NC3C4CCC3CC(OCc3c(-c5ccccc5OC(F)(F)F)noc3C3CC3)C4)cnc12 (centres unmarked) [Example 27] | 6.30 to 7.60
21 | FC(F)(F)Oc1ccccc1-c1noc(C2CC2)c1COC1CC2CCC(C1)C2Nc1cnc2c(-c3nnn[nH]3)cc(C3CC3)cc2n1 (centres unmarked) [Example 28] | > 7.60
22 | O=C(O)c1ccc2nc(NC3C4CCC3CC(OCc3c(-c5ccccc5OC(F)(F)F)noc3C3CC3)C4)cnc2c1 (centres unmarked) [Example 29] | > 7.60
23 | O=C(O)c1cc(C2CC2)cc2nc(NC3C4CCC3CC(OCc3c(-c5ccccc5OC(F)(F)F)noc3C3CC3)C4)cnc12 (centres unmarked) [Example 30] | > 7.60
24 | O=C(O)c1ccc2ccc(NC3C4CCC3CC(OCc3c(-c5ccccc5OC(F)(F)F)noc3C3CC3)C4)nc2c1 (centres unmarked) [Example 31] | 6.30 to 7.60
25 | Fc1cc(-c2nnn[nH]2)c2ncc(NC3C4CCC3CC(OCc3c(-c5ccccc5OC(F)(F)F)noc3C3CC3)C4)nc2c1 (centres unmarked) [Example 32] | > 7.60
26 | CC1(S(=O)(=O)NC(=O)c2cccc3nc(NC4C5CCC4CC(OCc4c(-c6ccccc6OC(F)(F)F)noc4C4CC4)C5)cnc23)CC1 (centres unmarked) [Example 33] | > 7.60
